For experiment [1], the system named is Rat Skin Tumor Cell (B16F1 cell strain). Briefly: MTT cell viability assay. It is filed as cell-based. The conditions noted are these: Mus musculus, B16-F1.
Experiment [2] has as its system Ovarian Tumor Cell (SKOV3 cell strain). Briefly: MTT cell viability assay. It is filed as cell-based. Conditions: Homo sapiens, SK-OV-3.
Experiment [3] concerns breast tumor cells MDA-MB-231. Briefly: transwell invasion assay. It is filed as cell-based, human. The conditions noted are these: 0.5, 1 and 2 μM, 20 h, with increasing concentration. As for the experimental part:
(§1) In the transwell invasion assay, the Matrigel which was a component of ECM was used to imitate the environment between cells. When the cells in a BD Matrigel™ Invasion Chamber were stimulated by growth factors in the Matrigel matrix, the cells secreted some matrix proteolytic enzymes to degrade the Matrigel, so as to facilitate invasion of cells. If the cells had strong invasion capability, the cells can be observed on the filter membrane after staining. In FIG. 15, 800 μl 10% FBS-DMEM was added into the transwell as a chemoattractant, and then 500 μl cells (1×10^5) were planted in the transwell. DMEM culture medium included no FBS and the compound II of 0.5, 1 and 2 μM. The breast tumor cells MDA-MB-231 were then cultured at an atmosphere of 5% CO2 in an incubator at 37° C. for 20 h. Subsequently the cells were stained with Giemsa for 15 min, and observed by taking photographs at a 200× field of an optical microscope. In the test each time each group was represented by a medium value of three repeat transwells. In FIGS. 16A, 16B and 17, the breast tumor cells MDA-MB-231 were replaced by the breast tumor cells MDA-MB-468, the breast tumor cells MDA-MB-435 and the human normal breast cells MCF-10A, respectively. Furthermore, in FIGS. 16A and 16B, the compound II was replaced by the compound I of 0.5, 1 and 2 μM and the compound I of 2.5, 5 and 7.5 μM. In FIG. 17, the compound II was replaced by compound I of 2 μM, TNF-α/TGF-β of 10 ng/ml, and compound I of 2 μM and TNF-α/TGF-β of 10 ng/ml. In the quantitative method of cell migration test, steps included randomly choosing 9 fields at the lower surface of the transwell membrane, counting the total cell number in each field; regarding the medium value of cell number in the 9 fields as an index of chemotaxis migration of breast tumor cells in each transwell, and each group of each test was represented by the medium value of 3 repeat transwells.

In experiment [4] the test system is cells stimulated by 10 ng/mL TNF-α. Description: wound scratching assay of cells stimulated by TNF-α. Conditions: 10 and 20 μM, 24 h. It is filed as cell-based. Here is the method:
In the wound scratching assay for observing cell migration, the cells MDA-MB-231 (3×10^5) were planted in a 12-well plate, and the next day the cells were washed with PBS twice. The original culture medium then was replaced by 1% FBS cell culture medium. The next day a space was scratched at the bottom of the well. The cell culture medium was removed and the cells were washed with PBS twice. 1% FBS cell culture medium and the compound II of different concentrations were added and photographs were taken after 0, 12, 24 and 36 h so as to observe migration of cells. After the reaction, the cells were fixed for 30 min using 75% ice alcohol. After the alcohol was completely volatilized, the cells were stained with Giemsa Stain. The migration number of cells was counted in three random fields (200×) under the microscope (Lin et al., 2008). […] After the breast tumor cells were treated for 0, 12, 24 and 36 h, the quantitative result of effect of the compound II on metastasis of breast tumor cells MDA-MD-231 was observed, and the data results were represented by mean±SD values, where n=3. FIG. 19 illustrates the effect of the compound II in different doses on migration of cells stimulated by 10 ng/mL TNF-α and detected by the wound scratching assay, where the cells were observed under a microscope. […]

Experiment [5] deals with breast tumor cells MDA-MB-435. Description: transwell invasion assay. It is filed as cell-based, human. The conditions noted are these: 2.5, 5 and 7.5 μM, with increasing concentration. Here is the method: as §1
Experiment [6] has as its system breast tumor cells MDA-MB-468. Description: transwell invasion assay. It is filed as cell-based, human. The conditions noted are these: 0.5, 1 and 2 μM, with increasing concentration. As for the experimental part:
as §1

pIC50: −log10 of the molar value.

With `COC1=C(OC)C(=O)C(C)=C(C)C1=O` [compound II], the pIC50 is 4.89 in experiment [1] and 4.81 in experiment [2]. The “migration of breast tumor cells MDA-MB-231 (transwell)” value in experiment [3] is recorded as “significantly reduced”. Further, in experiment [4], the cell migration entry is recorded as “not obvious”.
On to `COC1=C(OC)C(=O)C(C)=CC1=O` [compound I], for which, in experiment [5], the “migration of breast tumor cells MDA-MB-435 (transwell)” value is listed as “also significantly reduced”. In addition, the “migration of breast tumor cells MDA-MB-468 (transwell)” value in experiment [6] is given as “significantly reduced”.

The values above are taken from US20150087722A1, “TREATMENT FOR BREAST TUMOR CELL METASTASIS” (China Medical University, priority 2012, published 2015).
